Laboratory results: patent publication US6528251B2, “Method of managing the chemotherapy of patients who are HIV positive based on the phenotypic drug sensitivity of human HIV strains” (Virco N.V., priority 1996, dated 2003)
Read-outs that look alike come from different tables or passages of the source.

What was measured:
Assay type in all cases: cell-based, HIV-1
[1] = tested on: recombinant virus from patient viral RNA (Example 12); assay: Recombinant virus assay (MT4/MTT), patient of Example 12 (therapy history RT and protease inhibitors); settings: for ratio (1)/(2): Table 8, patient mean IC50 / recIIIB IC50, Example 12
Protocol: (§1) RNA was isolated from 100 μl of plasma according to the method described by Boom, R. et al. (1990, supra), and was reverse transcribed with the GeneAmp reverse transcriptase kit (Perkin Elmer) as described by the manufacturer and using an HIV-1 specific downstream primer (OUT3: 5′-CATTGCTCTCCAATTACTGTGATATTTCTCATC-3′; SEQ ID NO: 1). PCR on reverse transcribed RNA was performed with inner and outer primers as described by Kellam, P. and Larder, B. A. (1994, supra). After chloroform extraction and centrifugation on Centricon 100 columns or centrifugation on anion-exchange spin columns (Quiagen), the isolated PCR product was ready for use in the transfection reactions.
(§2) MT4 cells were subcultured at a density of 250,000 cells/ml before transfection (exponential growth phase). Cells were pelleted and resuspended in phosphate buffered saline (PBS) at a concentration of […]. A 0.8 ml portion (2.5 10E6 cells/ml) was used for each transfection. Transfection was performed with the Bio-Rad Gene pulser making use of 0.4 cm electrode cuvettes. Cells were electroporated in the presence of […] of linearised pHIVΔRT plasmid and approximately 5 μg of RT PCR product at 250SF and 300 V, followed by a 30-min incubation at room temperature. Subsequently, 10 ml of fresh culture medium was added to the cell suspension and incubation was performed at 37° C. in a humidified atmosphere of 5% CO2.
(§3) During 7 to 10 days following the transfection, cells were monitored for the appearance of cytopathogenic effect (CPE). In the absence thereof, cells were subcultured in different flasks. Subsequently, culture supernatants of transfected cells were used to create a stock of recombinant virus and stored in 1.5 ml aliquots at −70° C.
(§4) After titration of the new viruses, the stocks were used for antiviral experiments in the presence of serial dilutions of different HIV inhibitors. Titres of the harvested supematants were determined by limited serial dilution titration of virus in MT4 cells.
(§5) Viruses with a useful titre were used in antiviral experiments. For this purpose, 96-well microtitre plates were filled with 100μl of complete culture medium. Subsequently, stock solutions of compounds were added in 25 μl volumes to series of duplicate wells. HIV- and mock-infected cell samples were included for each drug (or drug combination). Exponentially growing MT4 cells were then transferred to the microtitre plates at a density of 150,000 cells/ml. The cell cultures were then incubated at 37° C. in a humidified atmosphere of 5% CO2. Five days after infection, the viability of the mock- and HIV-infected cells was examined spectrophotometrically by the M1T method (Pauwels, R. et al. J. Virol. Meth. (1988), 20: 309-321) as described in Section 6 below.
(§6) To each well of the microtiter plates, 20 μl of a solution of MTT (7.5 mg/ml in PBS) was added. The plates were further incubated at 37° C. for 1 h. Then, 150 μl of medium was removed without disturbing the MT4 cell clusters containing the formazan crystals. Solubilization of the formazan crystals was achieved by adding 100 μl 5% Triton X-100 in acidified isopropanol (5 ml concentrated HCl per liter solvent). Complete dissolution of the formazan crystals was obtained after the plates had been placed on a plate shaker for 10 min. Finally the absorbances were read at two wavelengths (540 and 690 nm). From these optical density (OD) data, 50% inhibitory (IC50) and 50% cytotoxic (CC50) concentrations were derived.
(§7) An HIV infected patient with a therapy history including RT and protease inhibitors donated plasma whose susceptibility to a number of RT inhibitors and protease inhibitors was determined according to the protocol set out in Example 1.

[2] = tested on: recombinant virus from patient viral RNA (Example 10, drug-naive patient); assay: Recombinant virus assay (MT4/MTT), drug-naive patient of Example 10; settings: for IC50: Human immunodeficiency virus 1, Table 6, Example 10 patient virus; for ratio (1)/(2): Table 6, patient mean IC50 / recIIIB IC50, Example 10
Protocol: as §1, §2, §3, §4, §5, §6
A drug-naive HIV-infected patient donated plasma whose susceptibility to a number of RT inhibitors and protease inhibitors was determined according to the protocol set out in Example 1. Recombinant wild type HIV strain recIIIB was used as a reference HIV virus.

[3] = tested on: recombinant virus from patient viral RNA (Example 11); assay: Recombinant virus assay (MT4/MTT), patient of Example 11 (therapy history RT and protease inhibitors); settings: for ratio (1)/(2): Table 7, patient mean IC50 / recIIIB IC50, Example 11
Protocol: as §1, §2, §3, §4, §5, §6
as §7, with “1. Recombinant wild type HIV strain recIIIb was used as a reference HIV virus.” for “1.”

[4] = tested on: recombinant virus from plasma of HIV-infected individuals on NNRTI long-term monotherapy; assay: Phenotyping of patients on NNRTI long-term monotherapy (Example 13), fold resistance
Protocol: as §4, §5, §6
Plasma samples were obtained from HIV-infected individuals who had been receiving non-nucleoside RT inhibitor (NNRTI) long-term monotherapy. HIV-RNA was extracted, reverse-transcribed and amplified as described in Example 1. Starting from outer PCR material of positive samples, the first 785 nucleotides of the RT gene were amplified and this material was further used for genotyping.
Amino acids changes at these positions are shown for each patient in the following rows. […] The right part of Table 9 presents the fold resistance to different RT inhibitors as determined by the method according to the invention for each of the patients' samples. NNRTI 1 is the non-nucleoside RT inhibitor that was administered to the patients.

[5] = Human immunodeficiency virus 1, MT4, read-out: Anti-HIV-1 activity IC50 (μM) Exp. 1
[6] = Human immunodeficiency virus 1, MT4, read-out: Anti-HIV-1 activity IC50 (μM) Exp. 2
[7] = Human immunodeficiency virus 1, read-out: Anti-HIV-1 activity IC50 (μM) Mean (1)
[8] = MT4 cells, read-out: Anti-HIV-1 activity IC50 (μM) Exp. 1
[9] = MT4 cells, read-out: Anti-HIV-1 activity IC50 (μM) Exp. 2
[10] = mean, read-out: Anti-HIV-1 activity IC50 (μM) Mean (1)
[11] = Patient 4, no resistance associated mutation
[12] = Patient 5, no resistance associated mutation
[13] = Patient 11, RT mutations M41L, D67N, K70R, K103N, M184V, T215F, K219Q
[14] = Patient 12, RT mutations M41L, T215Y
[15] = Patient 13, RT mutations K101E, K103K/N, E138A, G190G/A
[16] = Patient 16, RT mutations K103N, M184V

Row | Structure (SMILES) | ratio (1)/(2) [1] | IC50 [2, 8] | IC50 [2, 9] | IC50 [2, 10] | ratio (1)/(2) [2] | ratio (1)/(2) [3] | FOLD RESISTANCE TO ([4]; Patient 1, RT mutation K103N) | FOLD RESISTANCE TO ([4]; Patient 2, RT mutation K103S) | FOLD RESISTANCE TO ([4]; Patient 3, RT mutation K103N) | FOLD RESISTANCE TO [4, 11] | FOLD RESISTANCE TO [4, 12] | FOLD RESISTANCE TO ([4]; Patient 6, RT mutation K103N) | FOLD RESISTANCE TO ([4]; Patient 7, RT mutation K103S) | FOLD RESISTANCE TO ([4]; Patient 8, RT mutation K103N) | FOLD RESISTANCE TO ([4]; Patient 9, RT mutation Y181C) | FOLD RESISTANCE TO ([4]; Patient 10, RT mutation K103N) | FOLD RESISTANCE TO [4, 13] | FOLD RESISTANCE TO [4, 14] | FOLD RESISTANCE TO [4, 15] | FOLD RESISTANCE TO ([4]; Patient 14, RT mutation K103N) | other results
1 | Nc1ccn([C@@H]2CS[C@H](CO)O2)c(=O)n1 [3TC, lamivudine] | 22 | 1.53 µM | 1.72 µM | 1.62 µM | 0.4 | 19 | 1 fold | 0.4 fold | 1 fold | 0.1 fold | 0.4 fold | 0.3 fold | 0.04 fold | 1 fold | 1 fold | 0.1 fold | >8 fold | 2 fold | 1 fold | 1 fold | IC50 [1, 5]: > 100 µM; IC50 [1, 6]: > 100 µM; IC50 [1, 7]: > 100 µM; IC50 [3, 5]: > 100 µM; IC50 [3, 6]: 94 µM; IC50 [3, 7]: ≥ 97 µM; FOLD RESISTANCE TO ([4]; Patient 15, RT mutation K103N): 1 fold; FOLD RESISTANCE TO [4, 16]: >8 fold; FOLD RESISTANCE TO ([4]; Patient 17, RT mutation K103N): 1 fold; FOLD RESISTANCE TO ([4]; Patient 18, RT mutation K103S): 1 fold; FOLD RESISTANCE TO ([4]; Patient 19, RT mutation K103N): 1 fold; FOLD RESISTANCE TO ([4]; Patient 20, RT mutation A98G): 1 fold; FOLD RESISTANCE TO ([4]; Patient 21, RT mutation K103N): 0.4 fold; FOLD RESISTANCE TO ([4]; Patient 22, RT mutation V108I): 0.4 fold; FOLD RESISTANCE TO ([4]; Patient 23, RT mutation K103N): 0.2 fold; FOLD RESISTANCE TO ([4]; Patient 24, RT mutation K101Q): 1 fold
2 | Cc1cn([C@H]2C[C@H](N=[N+]=[N-])[C@@H](CO)O2)c(=O)[nH]c1=O [AZT, zidovudine] | 88 | 0.019 µM | 0.019 µM | 0.019 µM | 0.5 | 0.3 | 1 fold | 1 fold | 0.4 fold | 0.3 fold | 1 fold | 1 fold | 1 fold | 1 fold | 2 fold | 0.4 fold | 94 fold | 28 fold | 1 fold | 1 fold | susceptibility of the patient's HIV strain (in words) ([1]; Example 12 patient, conclusion from Table 8): decreased susceptibility; IC50 ([1]; Human immunodeficiency virus 1, Table 8, Example 12 patient virus, MT4 cells, read-out: Anti-HIV-1 activity IC50 (μM) Exp. 1): 3.83 µM; IC50 ([1]; Human immunodeficiency virus 1, Table 8, Example 12 patient virus, MT4 cells, read-out: Anti-HIV-1 activity IC50 (μM) Exp. 2): 3.35 µM; IC50 ([1]; Human immunodeficiency virus 1, Table 8, Example 12 patient virus, mean, read-out: Anti-HIV-1 activity IC50 (μM) Mean (1)): 3.59 µM; IC50 ([3]; Human immunodeficiency virus 1, Table 7, Example 11 patient virus, MT4 cells, read-out: Anti-HIV-1 activity IC50 (μM) Exp. 2): 0.015 µM; IC50 ([3]; Human immunodeficiency virus 1, Table 7, Example 11 patient virus, mean, read-out: Anti-HIV-1 activity IC50 (μM) Mean (1)): 0.015 µM; FOLD RESISTANCE TO ([4]; Patient 15, RT mutation K103N): 2 fold; FOLD RESISTANCE TO [4, 16]: 1 fold; FOLD RESISTANCE TO ([4]; Patient 17, RT mutation K103N): 1 fold; FOLD RESISTANCE TO ([4]; Patient 18, RT mutation K103S): 1 fold; FOLD RESISTANCE TO ([4]; Patient 19, RT mutation K103N): 1 fold; FOLD RESISTANCE TO ([4]; Patient 20, RT mutation A98G): 0.4 fold; FOLD RESISTANCE TO ([4]; Patient 21, RT mutation K103N): 1 fold; FOLD RESISTANCE TO ([4]; Patient 22, RT mutation V108I): 1 fold; FOLD RESISTANCE TO ([4]; Patient 23, RT mutation K103N): 0.2 fold; FOLD RESISTANCE TO ([4]; Patient 24, RT mutation K101Q): 1 fold
